Consider two compounds from US10702556B2, “Compositions and methods for inducing angiogenesis” (MINOVIA THERAPEUTICS LTD., priority 2012, dated 2020).

This assay has as its system mouse aortic rings. Briefly: Mouse aortic ring sprouting (ex-vivo angiogenesis). In kind it is cell-based.

Experimental: Thoracic aorta were removed from female C57/BL mice and cut into 0.5 mm rings. Aortic rings were incubated in serum-free medium and either left untreated or treated with 0.5 μM Rotenone for 4 hours. To assess mitochondria effect on sprouting of aortic rings, half of the non-treated rings were washed and incubated with 25 μg of C57/BL mouse placental mitochondria in 2 ml serum-free medium. After 24 hours the rings were embedded in rat tail collagen, one ring per well in a 96 wells plate. After 8 days in culture the level of sprouting was evaluated by counting the number of vessels per ring.
The effect of VEGF, mitochondria and mitochondria+VEGF on sprouting of aortic rings in-vitro was examined Mouse aortic rings were prepared as described in example 7 and were either left un-treated (NT), treated with 25 μg mouse placental mitochondria in 2 ml OptiMem medium for 24 h (Mito), incubated in OptiMem medium containing 2.5% FBS and 30 ng/ml mouse VEGF for 48 h (VEGF) or treated with both mitochondria and VEGF (VEGF+Mito). The number of new blood vessels sprouting from the aortic rings was counted on day 8.
Mouse aortic rings were prepared as described in example 7 and were either left un-treated or treated with increasing amounts (2-350 μg) of mouse placental mitochondria in 2 ml OptiMem medium for 24 h. The number of new blood vessels sprouting from the aortic rings was counted on day 7.
The effect of mitochondria on the number of blood vessels was evaluated in a mouse aortic ring model. Mouse aortic rings were prepared as described in example 7 and were either left un-treated (Control), treated for 24 h with 25 μg of mouse placental mitochondria (Mito), treated with mitochondria that were inhibited by 2 μM of mitochondria complex I inhibitor Rotenone or treated with mitochondria that were inhibited with 5 μM of the ATP Synthase inhibitor Oligomycin for 24 h. The number of new blood vessels sprouting from the aortic rings was counted on day 8.

With `C=C(C)[C@H]1Cc2c(ccc3c2O[C@@H]2COc4cc(OC)c(OC)cc4[C@@H]2C3=O)O1` [Rotenone], the “number of vessels per ring (sprouting)” value (0.5 μM Rotenone for 4 hours, 8 days in culture) is reported as “blocked the sprouting almost completely”.

VEGF: the “number of new blood vessels sprouting from the aortic rings, comparison between treated groups” value (25 μg mitochondria 24 h, 30 ng/ml mouse VEGF 48 h, or both, day 8) is “no significant difference”.
